Measurements published in US9334242B2, “Compounds for treatment of cancer” (GTX, INC., priority 2010, dated 2016).
Read-outs that look alike come from different tables or passages of the source.

Tests used:
[1] = test system: A375 human melanoma xenograft; experiment: In vivo anti-tumor activity, A375 human melanoma xenograft on SHO mice; details: 25 mg/kg, 31 days
MES-SA = experiment: Growth inhibition SRB assay, parental line; format: cell-based; details: Homo sapiens, Table 6, read-out: IC50 ± SEM (nM) MES-SA
PPC-1 = experiment: Cytotoxicity / cell growth inhibition, SRB assay; details: Homo sapiens
MES-SA/DX5 = experiment: Growth inhibition SRB assay, P-gp over-expressing line; format: cell-based; details: Homo sapiens, Table 6, read-out: IC50 ± SEM (nM) MES-SA/Dx5
[2] = test system: T1, tubulin colchicine binding site; experiment: [3H]-colchicine competition-binding scintillation proximity assay; details: SPA
T1 construct: […]; other: SPA

PC-3_TxR = experiment: Cytotoxicity SRB assay, paclitaxel-resistant prostate line; details: for IC50: Homo sapiens, PC3-TxR, read-out: IC50 ± SEM (nM) PC-3_TxR; for Resistance Factor: PC-3_TxR versus PC-3
OVCAR-8 = experiment: Cytotoxicity SRB assay, MDR model parent line; format: cell-based; details: Homo sapiens
WM-164 melanoma cells = experiment: Microtubule imaging (immunofluorescence, Cellomics Cytoskeleton rearrangement kit); format: cell-based, human; details: WM-164 cells, 18 h
From the text: Primary antibody for tubulin and fluorescence-labeled secondary antibody were subsequently added to the cells. Cell nuclei were stained by DAPI. Whole Cell Stain Green was also applied to all cells. All images were acquired with an Olympus IX71 inverted fluorescence microscope (Olympus Corp., Tokyo, Japan) with overlays from separate images of tubulin (red), nuclei (blue), and whole cells (green).

[3] = Pharmacokinetic study in Sprague-Dawley rats; details: rat
[4] = Pharmacokinetic study in ICR mice
Porcine brain tubulin = experiment: In vitro microtubule polymerization assay; format: biochemical
in vivo = details: female, Sprague-Dawley, rat, plasma, 10 mg/kg
WM-164 = experiment: Cytotoxicity / cell growth inhibition, SRB assay; format: cell-based; details: Homo sapiens, WM164, Table 6A
A375 = experiment: Cytotoxicity / cell growth inhibition, SRB assay; format: cell-based; details: Homo sapiens, A-375, 96 h, 96 h of treatment, read-out: IC50 ± SEM (nM) A375
PC-3 = experiment: Cytotoxicity / cell growth inhibition, SRB assay; details: Homo sapiens, PC-3, 96 h, read-out: IC50 ± SEM (nM) PC-3, SRB assay, 96 h of treatment
DU 145 = experiment: Cytotoxicity / cell growth inhibition, SRB assay; details: Homo sapiens, DU-145, 96 h, read-out: IC50 ± SEM (nM) DU 145, SRB assay, 96 h of treatment
B16-F1 = experiment: Cytotoxicity / cell growth inhibition, sulforhodamine B (SRB) assay; format: cell-based; details: Mus musculus, B16-F1, 96 h, 96 h of treatment, read-out: IC50 ± SEM (nM) B16-F1
LNCaP = experiment: Cytotoxicity / cell growth inhibition, SRB assay; details: Homo sapiens, 96 h, read-out: IC50 ± SEM (nM) LNCaP, SRB assay, 96 h of treatment

Compound: O=C(c1ccc(F)cc1)c1c[nH]c(-c2ccc(Cl)cc2)n1 [12fb, (2-(4-chlorophenyl)-1H-imidazol-4-yl)(4-fluorophenyl)methanone]
- tolerability (body weight, physical activity) [1]: well tolerated

Compound: CC(=O)O[C@H]1C(=O)[C@@]2(C)[C@H]([C@H](OC(=O)c3ccccc3)[C@]3(O)C[C@H](OC(=O)[C@H](O)[C@@H](NC(=O)c4ccccc4)c4ccccc4)C(C)=C1C3(C)C)[C@]1(OC(C)=O)CO[C@@H]1C[C@@H]2O [paclitaxel]
- IC50 (MES-SA): 2.7 nM
- IC50 (PPC-1; PPC-1, 96 h, read-out: IC50 ± SEM (nM) PPC-1): 2.3 nM
- IC50 (PPC-1; PPC-1, read-out: IC50 ± SEM (nM) PPC-1): 2.3 ± 0.8 nM
- IC50 (PPC-1; PPC-1, read-out: IC50 ± SEM (nm) PPC-1): 2.3 ± 0.8 nM
- IC50 (MES-SA/DX5): 6.6 nM
- competition for the tubulin colchicine binding site (in words) [2]: flat line
- IC50 (PC-3_TxR): 97 ± 1 nM
- Resistance Factor (PC-3_TxR): 20
- IC50 (OVCAR-8; OVCAR-8, read-out: IC50 (nM) OVCAR-8): 4.7 ± 0.1 nM
- IC50 (OVCAR-8; OVCAR-8, read-out: IC50 ± SEM (nm) OVCAR-8): 4.7 ± 0.1 nM
- effect on microtubule arrangement (WM-164 melanoma cells): condensation of microtubules

Compound: COc1cc(C(=O)c2csc(Nc3ccc4[nH]ccc4c3)n2)cc(OC)c1OC [compound 55, (2-(1H-indol-5-ylamino)thiazol-4-yl)(3,4,5-trimethoxyphenyl)methanone]
- IC50 (PC-3_TxR): 29 ± 1 nM
- Resistance Factor (PC-3_TxR): 1.2
- RatPK_IV5mgk_V ([3]; i.v. 5 mg/kg): 1.0 Lkg
- RatPK_PO10mgk_AUC ([3]; p.o. 10 mg/kg): 335 µg·min/mL
- RatPK_PO10mgk_Cmax ([3]; p.o. 10 mg/kg): 1052 ng/mL
- MousePK_IV10mgk_Cl ([4]; mouse, i.v. 10 mg/kg): 40 mLmin/kg
- MousePK_IV10mgk_V ([4]; mouse, i.v. 10 mg/kg): 1.3 Lkg
- MousePK_Bioavailability ([4]; mouse, oral): 34 %F
- oral bioavailability, mice ([4]; p.o. 20 mg/kg versus i.v. 10 mg/kg): 34%
- inhibition of tubulin polymerization at 1 μM (Porcine brain tubulin): 11%
- bioavailability (in vivo; oral): 33%
- bioavailability (in vivo; po): 33%

Compound: O=C(c1ccc(F)cc1)c1csc(-c2ccccc2)n1 [compound 12]
- IC50 (WM-164): > 10000 nM

Compound: O=C(c1ccc2[nH]ccc2c1)c1csc(-c2cc3ccccc3[nH]2)n1 [compound 21, (2-(1H-indol-2-yl)thiazol-4-yl)(1H-indol-5-yl)methanone]
- IC50 (A375): 100 nM
- IC50 (PPC-1; PPC-1, 96 h, read-out: IC50 ± SEM (nM) PPC-1, SRB assay, 96 h of treatment): 76 nM
- IC50 (PC-3): 87 nM
- IC50 (DU 145): 116 nM
- IC50 (B16-F1): 110 nM
- IC50 (LNCaP): 103 nM
